Experimental data published in article PMC4325472, “An Expedient Synthesis, Acetylcholinesterase Inhibitory Activity, and Molecular Modeling Study of Highly Functionalized Hexahydro-1,6-naphthyridines” (BioMed Research International, 2015).
Read-outs that look alike come from different tables or passages of the source.

Target: T1, acetylcholinesterase enzyme from Electrophoruselectricus (AChE enzyme from electric eel) (Electrophorus electricus, UniProt O42275)
T1 construct: purchased Sigma
Experiment: biochemical
Protocol: Cholinesterase inhibitory activity of the synthesized compounds was evaluated using the Ellman's microplate assay. For acetylcholinesterase (AChE) inhibitory assay, 140 μL of 0.1 M sodium phosphate buffer (pH 8) was first added to a 96-well microplate followed by 20 μL of test samples and 20 μL of 0.09 units/mL acetylcholinesterase enzyme from Electrophoruselectricus (Sigma). After 15 minutes of incubation at 25°C, 10 μL of 10 mM 5,5′-dithiobis-2-nitrobenzoic acid (DTNB) was added into each well followed by 10 μL of acetylthiocholine iodide (14 mM). At 30 minutes after the initiation of enzymatic reaction, absorbance of the colored end-product was measured using BioTek Power Wave X 340 Microplate Spectrophotometer at 412 nm.
Galantamine was used as positive control. Test samples and galantamine were prepared in DMSO at an initial concentration of 1 mg/mL (1000 ppm). The concentration of DMSO in final reaction mixture was 1%.
The initial screening was carried out at 10 μg/mL of test samples in 1% DMSO and each test was conducted in triplicate. Absorbencies of the test samples were corrected by subtracting the absorbance of their respective blank. Percentage enzyme inhibition is calculated using the following formula: (1) Percentage of inhibition =[…]/Absorbance of control×100. Subsequently, the determination of IC50 was carried out using a set of five concentrations.
All newly synthesized 1,6-naphthyridines were evaluated in vitro for their inhibitory potential against AChE enzyme from electric eel using colorimetric Ellman's method (Table 1).

[1] = Ellman's method, AChE from electric eel, triplicate, five concentrations, read-out: AChE inhibition (IC50 ± SD)

T1 sequence (O42275 24-633): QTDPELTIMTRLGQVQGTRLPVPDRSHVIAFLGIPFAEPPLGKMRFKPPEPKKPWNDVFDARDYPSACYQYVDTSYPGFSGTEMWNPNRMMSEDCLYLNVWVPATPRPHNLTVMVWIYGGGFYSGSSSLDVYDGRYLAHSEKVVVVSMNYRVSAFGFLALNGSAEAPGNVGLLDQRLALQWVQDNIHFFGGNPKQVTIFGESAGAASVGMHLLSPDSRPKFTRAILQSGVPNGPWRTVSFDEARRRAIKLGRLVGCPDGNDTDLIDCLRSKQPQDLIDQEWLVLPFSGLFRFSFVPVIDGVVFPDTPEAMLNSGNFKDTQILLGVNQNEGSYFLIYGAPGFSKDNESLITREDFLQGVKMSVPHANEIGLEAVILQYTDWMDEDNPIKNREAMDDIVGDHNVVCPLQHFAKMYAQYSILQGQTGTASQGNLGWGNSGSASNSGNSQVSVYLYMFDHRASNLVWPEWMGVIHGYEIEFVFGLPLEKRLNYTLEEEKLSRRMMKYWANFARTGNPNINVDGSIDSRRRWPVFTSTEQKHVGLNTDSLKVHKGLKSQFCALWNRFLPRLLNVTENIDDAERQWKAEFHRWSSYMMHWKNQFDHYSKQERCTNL

SMILES: N#Cc1c(-c2ccccc2)c2c([nH]c1=O)/C(=C/c1ccccc1)CNC2 [4a, (E)-8-Benzylidene-2-oxo-4-phenyl-1,2,5,6,7,8-hexahydro-1,6-naphthyridine-3-carbonitrile]
- IC50 [1]: 11.18 ± 0.02 µM

SMILES: Cc1ccccc1/C=C1\CNCc2c1[nH]c(=O)c(C#N)c2-c1ccccc1C [4b, (E)-8-(2-Methylbenzylidene)-2-oxo-4-(o-tolyl)-1,2,5,6,7,8-hexahydro-1,6-naphthyridine-3-carbonitrile]
- IC50 [1]: 7.2 ± 0.02 µM

SMILES: N#Cc1c(-c2ccccc2Cl)c2c([nH]c1=O)/C(=C/c1ccccc1Cl)CNC2 [4c, (E)-8-(2-Chlorobenzylidene)-4-(2-chlorophenyl)-2-oxo-1,2,5,6,7,8-hexahydro-1,6-naphthyridine-3-carbonitrile]
- IC50 [1]: 15.21 ± 0.1 µM

SMILES: N#Cc1c(-c2ccccc2Br)c2c([nH]c1=O)/C(=C/c1ccccc1Br)CNC2 [4d, (E)-8-(2-Bromobenzylidene)-4-(2-bromophenyl)-2-oxo-1,2,5,6,7,8-hexahydro-1,6-naphthyridine-3-carbonitrile]
- IC50 [1]: 18.16 ± 0.02 µM

SMILES: COc1ccccc1/C=C1\CNCc2c1[nH]c(=O)c(C#N)c2-c1ccccc1OC [4e, (E)-8-(2-Methoxybenzylidene)-4-(2-methoxyphenyl)-2-oxo-1,2,5,6,7,8-hexahydro-1,6-naphthyridine-3-carbonitrile]
- IC50 [1]: 2.12 ± 0.02 µM

SMILES: N#Cc1c(-c2ccc(Cl)cc2Cl)c2c([nH]c1=O)/C(=C/c1ccc(Cl)cc1Cl)CNC2 [4f, (E)-8-(2,4-Dichlorobenzylidene)-4-(2,4-dichlorophenyl)-2-oxo-1,2,5,6,7,8-hexahydro-1,6-naphthyridine-3-carbonitrile]
- IC50 [1]: 24.72 ± 0.01 µM

SMILES: N#Cc1c(-c2cccc([N+](=O)[O-])c2)c2c([nH]c1=O)/C(=C/c1cccc([N+](=O)[O-])c1)CNC2 [4g, (E)-8-(3-Nitrobenzylidene)-4-(3-nitrophenyl)-2-oxo-1,2,5,6,7,8-hexahydro-1,6-naphthyridine-3-carbonitrile]
- IC50: 16.86 ± 0.02 µM

SMILES: Cc1ccc(/C=C2\CNCc3c2[nH]c(=O)c(C#N)c3-c2ccc(C)cc2)cc1 [4h, (E)-8-(4-Methylbenzylidene)-2-oxo-4-(p-tolyl)-1,2,5,6,7,8-hexahydro-1,6-naphthyridine-3-carbonitrile]
- IC50 [1]: 7.16 ± 0.02 µM

SMILES: N#Cc1c(-c2ccc(Cl)cc2)c2c([nH]c1=O)/C(=C/c1ccc(Cl)cc1)CNC2 [4i, (E)-8-(4-Chlorobenzylidene)-4-(4-chlorophenyl)-2-oxo-1,2,5,6,7,8-hexahydro-1,6-naphthyridine-3-carbonitrile]
- IC50 [1]: 3.86 ± 0.02 µM

SMILES: N#Cc1c(-c2ccc(F)cc2)c2c([nH]c1=O)/C(=C/c1ccc(F)cc1)CNC2 [4j, (E)-8-(4-Fluorobenzylidene)-4-(4-fluorophenyl)-2-oxo-1,2,5,6,7,8-hexahydro-1,6-naphthyridine-3-carbonitrile]
- IC50 [1]: 14.16 ± 0.02 µM

SMILES: N#Cc1c(-c2cccc3ccccc23)c2c([nH]c1=O)/C(=C/c1cccc3ccccc13)CNC2 [4k, (E)-4-(Naphthalen-1-yl)-8-(naphthalen-1-ylmethylene)-2-oxo-1,2,5,6,7,8-hexahydro-1,6-naphthyridine-3-carbonitrile]
- IC50 [1]: 6.86 ± 0.02 µM
